Experimental data: article PMC6733504, “Effects of flavoring compounds used in electronic cigarette refill liquids on endothelial and vascular function” (PLoS ONE, 2019)

Experiments:
[1] = biological target: T1, soluble guanylate cyclase (sGC) (Bos taurus, UniProt P16068+P19687); assay: Activity of purified sGC stimulated with DEA/NO; type: biochemical, bovine; conditions: control
T1 construct: The activity of sGC purified from bovine lung; from tissue; host or cells: bovine lung
T1 sequence (P19687 1-691): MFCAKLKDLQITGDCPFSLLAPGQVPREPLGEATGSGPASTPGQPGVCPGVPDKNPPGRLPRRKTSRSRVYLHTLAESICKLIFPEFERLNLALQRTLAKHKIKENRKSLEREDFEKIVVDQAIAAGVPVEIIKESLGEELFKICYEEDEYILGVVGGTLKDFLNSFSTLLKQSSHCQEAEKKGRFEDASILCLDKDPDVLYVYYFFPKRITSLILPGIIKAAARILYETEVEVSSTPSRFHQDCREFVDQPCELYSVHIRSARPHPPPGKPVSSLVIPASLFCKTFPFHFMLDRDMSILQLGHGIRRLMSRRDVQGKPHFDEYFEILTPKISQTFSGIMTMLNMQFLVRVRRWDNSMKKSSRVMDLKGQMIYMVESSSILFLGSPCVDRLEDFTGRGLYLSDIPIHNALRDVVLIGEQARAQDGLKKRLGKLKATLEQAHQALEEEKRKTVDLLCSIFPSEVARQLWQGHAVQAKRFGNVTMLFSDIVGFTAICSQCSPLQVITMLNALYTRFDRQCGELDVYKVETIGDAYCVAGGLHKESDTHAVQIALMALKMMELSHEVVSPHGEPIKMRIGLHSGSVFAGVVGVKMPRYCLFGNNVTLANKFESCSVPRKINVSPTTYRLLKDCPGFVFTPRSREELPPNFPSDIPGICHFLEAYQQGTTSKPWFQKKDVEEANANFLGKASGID
T1 sequence (P16068 1-619): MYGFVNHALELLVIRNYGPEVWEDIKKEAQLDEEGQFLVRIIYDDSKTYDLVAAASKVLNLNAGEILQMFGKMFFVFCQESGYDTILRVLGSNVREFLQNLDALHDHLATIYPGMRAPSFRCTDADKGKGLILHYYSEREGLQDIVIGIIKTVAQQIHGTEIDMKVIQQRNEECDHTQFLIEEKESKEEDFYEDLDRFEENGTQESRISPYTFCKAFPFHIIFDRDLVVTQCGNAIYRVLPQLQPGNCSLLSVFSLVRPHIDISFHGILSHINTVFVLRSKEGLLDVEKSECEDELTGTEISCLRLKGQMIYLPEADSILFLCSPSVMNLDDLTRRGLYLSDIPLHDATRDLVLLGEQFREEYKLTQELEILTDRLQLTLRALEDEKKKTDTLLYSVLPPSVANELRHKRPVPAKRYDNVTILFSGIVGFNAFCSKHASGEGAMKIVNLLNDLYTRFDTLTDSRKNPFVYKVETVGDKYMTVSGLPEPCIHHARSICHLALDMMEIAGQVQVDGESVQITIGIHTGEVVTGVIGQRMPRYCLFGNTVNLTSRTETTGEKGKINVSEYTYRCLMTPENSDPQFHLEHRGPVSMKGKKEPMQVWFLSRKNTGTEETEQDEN
Experimental: The activity of sGC purified from bovine lung was determined as formation of [^32P]cGMP from [α-^32P]GTP. The purified enzyme (50 ng) was incubated at 37°C for 10 min in a final volume of 0.1 ml in the absence or presence of flavorings with the NO donor DEA/NO at concentrations indicated in the figure legends, followed by isolation of [^32P]cGMP and quantification of radioactivity (Cerenkov radiation) in a β counter.
To test for reversibility of inhibition, sGC (50 ng) was preincubated in the absence or presence of the respective compounds for 5 minutes at 37°C, followed by 50-fold dilution in the assay mixtures and incubation with DEA/NO at 37°C for 10 minutes.

rat aortic rings = assay: Relaxation of U-46619 precontracted aortic rings to DEA/NO; conditions: read-out: EC50 of vascular relaxation to DEA/NO
Experimental: Animal experiments were performed in compliance with the Austrian law on experimentation with laboratory animals (last amendment 2013) based on the European Union guidelines for the Care and the Use of Laboratory Animals (European Union Directive 2010/63/EU). Unsexed Sprague-Dawley rats (obtained from Charles River, Sulzfeld, Germany) were housed at the local animal facility in approved cages. They were fed standard chow (Altromin 3023; obtained from Königshofer Futtermittel, Ebergassing, Austria) and received water ad libitum. Animals were euthanized in a box that was gradually filled with CO2 until vital signs had ceased (cessation of respiration and circulation). […]
For isometric tension measurements, vessel rings with intact endothelium were suspended in 5-ml organ baths containing oxygenated Krebs-Henseleit buffer (concentrations in mM: NaCl 118.4, NaHCO3 25, KCl 4.7, KH2PO4 1.2, CaCl2 2.5, MgCl2 1.2, D-Glucose 11; pH 7.4), as previously described in detail. After equilibration for 60 min at the optimal resting tension of 20 mN, maximal contractile activity was determined with a depolarizing solution containing 60 mM K^+. […]
Effects are expressed as percent of relaxation of U-46619-induced contraction. Concentration-response curves of different ring segments from a single animal were averaged and counted as an individual experiment.

[2] = test system: endothelium-denuded rat aortic rings; assay: cAMP and cGMP levels in endothelium-denuded aortic rings; conditions: 10 µM
Text: 1 S4 Table. […]
2 endothelium-denuded rat aortic rings.
Flavoring (fmol x mg-1) (fmol x mg-1)
4 En d o th e liu m-denuded rings, treated with test compounds as described in the
5 Materials and methods section of the main text, were freeze-clamped when maximal
6 relaxation had been reached. Rings were homogenized in 5% trichloroacetic acid
7 and analyzed for cAMP and cGMP by radioimmunoassay. Forskolin and DEA/NO
8 were used to induce maximal accumulation of cAMP and cGMP, respectively. Data
9 shown are mean values±SEM of 3 (forskolin and DEA/NO) or 6 (basal,
10 cinnamaldehyde and eugenol) rings; n.d., not determined, *p<0.05 vs. basal (ANOVA
11 and Dunnett's post hoc test).

## CCN(CC)[N+]([O-])=NO [DEA/NO, 2,2-Diethyl-1-nitroso-oxyhydrazine, reference compound]
[1]; no flavoring
  Maximal sGC activity with DEA/NO: 28±0.9 μmol cGMP x min^-1 x mg^-1
[1]; no flavoring (0.1% DMSO), 95% CI, read-out: EC50 of DEA/NO for sGC stimulation
  EC50: 37 nM
Rat aortic rings
  EC50: 43 nM
[2]
  cGMP: 4917±1483 fmol x mg-1
